Data on 11 compounds can be found in patent US20010034342A1, “Substituted urea and isothiourea derivatives as no synthase inhibitors” (priority 1993, published 2001).

Series [1] concerns the target T1, human placental NOS (Homo sapiens, UniProt P29474).
T1 construct: Purification of NOS from human placenta; from tissue; host or cells: fresh human placenta
The series is described as follows: Assay for human placental NOS (citrulline formation). The format is biochemical. The settings on record: for Ki: isolated enzyme from human placenta, read-out: Human Placental Ki/μM.
Experimental: (§1) NOS was assayed for the formation of citrulline following the procedure of Schmidt et al (PNAS 88 365-369, 1991) with these modifications: 20 mM Hepes, pH 7.4, 10 μg/ml calmodulin, 2.5 mM CaCl2 2.5 mM DTT, 125 μM NADPH 10 μM H4 Biopterin, 0.5 mg/ml BSA, and 1 μM L-[14C] arginine (New England Nuclear). Linearity of NOS-catalyzed rate was confirmed prior to kinetic studies that used single tine point determination of rate.

The target in series [2] is T2, Human brain NOS (Homo sapiens, UniProt P29475).
T2 construct: Purification of NOS from human brain; from tissue; host or cells: frozen human brain
T2 sequence (P29475 whole entry): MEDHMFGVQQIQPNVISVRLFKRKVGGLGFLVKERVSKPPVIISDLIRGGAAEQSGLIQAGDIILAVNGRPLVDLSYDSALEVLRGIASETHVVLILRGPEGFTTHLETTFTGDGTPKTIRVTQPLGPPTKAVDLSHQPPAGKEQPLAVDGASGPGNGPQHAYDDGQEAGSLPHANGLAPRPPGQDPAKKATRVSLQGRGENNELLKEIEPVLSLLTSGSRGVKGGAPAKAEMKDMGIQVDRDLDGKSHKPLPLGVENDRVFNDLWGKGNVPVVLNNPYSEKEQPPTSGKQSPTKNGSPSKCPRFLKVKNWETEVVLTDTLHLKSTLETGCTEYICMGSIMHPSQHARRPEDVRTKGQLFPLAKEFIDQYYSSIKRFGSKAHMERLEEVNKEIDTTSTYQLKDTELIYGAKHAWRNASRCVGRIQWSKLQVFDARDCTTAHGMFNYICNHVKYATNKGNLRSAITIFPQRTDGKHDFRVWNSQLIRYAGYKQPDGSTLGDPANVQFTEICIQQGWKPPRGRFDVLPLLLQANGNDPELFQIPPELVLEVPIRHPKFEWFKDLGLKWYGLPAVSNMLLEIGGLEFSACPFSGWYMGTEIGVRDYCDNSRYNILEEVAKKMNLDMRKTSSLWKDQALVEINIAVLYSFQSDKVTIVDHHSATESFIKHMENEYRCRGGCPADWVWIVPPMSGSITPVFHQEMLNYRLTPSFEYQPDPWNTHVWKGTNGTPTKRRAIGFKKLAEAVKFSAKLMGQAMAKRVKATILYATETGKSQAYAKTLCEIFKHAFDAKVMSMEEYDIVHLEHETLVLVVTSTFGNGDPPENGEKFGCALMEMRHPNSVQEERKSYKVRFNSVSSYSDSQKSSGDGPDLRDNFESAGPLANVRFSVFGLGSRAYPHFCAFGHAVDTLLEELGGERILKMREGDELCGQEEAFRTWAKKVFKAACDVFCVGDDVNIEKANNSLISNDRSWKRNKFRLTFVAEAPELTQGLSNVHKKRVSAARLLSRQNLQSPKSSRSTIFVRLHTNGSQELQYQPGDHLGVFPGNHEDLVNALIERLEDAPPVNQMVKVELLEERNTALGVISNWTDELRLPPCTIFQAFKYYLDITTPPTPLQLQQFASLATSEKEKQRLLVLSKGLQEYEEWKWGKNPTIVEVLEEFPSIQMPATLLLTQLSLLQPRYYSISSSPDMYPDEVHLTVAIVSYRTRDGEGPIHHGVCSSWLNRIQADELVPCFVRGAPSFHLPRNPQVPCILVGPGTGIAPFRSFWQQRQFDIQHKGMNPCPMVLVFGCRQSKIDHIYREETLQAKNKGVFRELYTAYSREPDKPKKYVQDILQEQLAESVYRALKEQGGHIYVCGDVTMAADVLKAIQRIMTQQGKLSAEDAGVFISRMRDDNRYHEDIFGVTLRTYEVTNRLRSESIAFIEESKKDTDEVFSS
The series is described as follows: Human brain NOS enzyme activity assay. The format is biochemical. The settings on record: for Ki: isolated enzyme from human brain.
Experimental: The mixture was centrifuged at 13,000 g for 1 hour and the supernatant was removed (about 2050 ml). […] The precipitate was pelleted at 13,000 g for 30 minutes and the pellet was resuspended in −400 mls of buffer A with 4 μM tetrahydrobiopterin, 1 μm FAD (Sigma), 1 μM FMN (Sigma). The solution was centrifuged at 41,000 g for 60 minutes. The supernatant was removed, frozen by pouring into liquid nitrogen, and stored overnight at −70° C. The mixture was thawed and passed through a 2′,5′ ADP-agarose column (0.4 g swelled in buffer A) at 4 ml/min. The column was washed with 100 ml buffer A, 200 ml buffer A with 500 mM NaCl, 100 ml Buffer A, then 30 ml buffer A with 5 mM NADPH. […] To the enzyme was added tetrahydrobiopterin to 10 μM, FAD and FMN to 1 μM, and tween to 0.1%. This solution was concentrated by centriprep-30 to a volume of approximately 500 μl. Human NOS was prepared completely analogously except the calmodulin-agarose column was not used.

Series [3] deals with T3, inducible human NOS (Homo sapiens, UniProt P35228).
T3 construct: Purification of NOS cytokine-induced human colorectal adenocarcinoma DLD-1 cells; endogenous in cells; host or cells: DLD-1 (ATCC No. CCL 221), induced with IFN-gamma, IL-6, TNF and IL-1beta
T3 sequence (P35228 whole entry): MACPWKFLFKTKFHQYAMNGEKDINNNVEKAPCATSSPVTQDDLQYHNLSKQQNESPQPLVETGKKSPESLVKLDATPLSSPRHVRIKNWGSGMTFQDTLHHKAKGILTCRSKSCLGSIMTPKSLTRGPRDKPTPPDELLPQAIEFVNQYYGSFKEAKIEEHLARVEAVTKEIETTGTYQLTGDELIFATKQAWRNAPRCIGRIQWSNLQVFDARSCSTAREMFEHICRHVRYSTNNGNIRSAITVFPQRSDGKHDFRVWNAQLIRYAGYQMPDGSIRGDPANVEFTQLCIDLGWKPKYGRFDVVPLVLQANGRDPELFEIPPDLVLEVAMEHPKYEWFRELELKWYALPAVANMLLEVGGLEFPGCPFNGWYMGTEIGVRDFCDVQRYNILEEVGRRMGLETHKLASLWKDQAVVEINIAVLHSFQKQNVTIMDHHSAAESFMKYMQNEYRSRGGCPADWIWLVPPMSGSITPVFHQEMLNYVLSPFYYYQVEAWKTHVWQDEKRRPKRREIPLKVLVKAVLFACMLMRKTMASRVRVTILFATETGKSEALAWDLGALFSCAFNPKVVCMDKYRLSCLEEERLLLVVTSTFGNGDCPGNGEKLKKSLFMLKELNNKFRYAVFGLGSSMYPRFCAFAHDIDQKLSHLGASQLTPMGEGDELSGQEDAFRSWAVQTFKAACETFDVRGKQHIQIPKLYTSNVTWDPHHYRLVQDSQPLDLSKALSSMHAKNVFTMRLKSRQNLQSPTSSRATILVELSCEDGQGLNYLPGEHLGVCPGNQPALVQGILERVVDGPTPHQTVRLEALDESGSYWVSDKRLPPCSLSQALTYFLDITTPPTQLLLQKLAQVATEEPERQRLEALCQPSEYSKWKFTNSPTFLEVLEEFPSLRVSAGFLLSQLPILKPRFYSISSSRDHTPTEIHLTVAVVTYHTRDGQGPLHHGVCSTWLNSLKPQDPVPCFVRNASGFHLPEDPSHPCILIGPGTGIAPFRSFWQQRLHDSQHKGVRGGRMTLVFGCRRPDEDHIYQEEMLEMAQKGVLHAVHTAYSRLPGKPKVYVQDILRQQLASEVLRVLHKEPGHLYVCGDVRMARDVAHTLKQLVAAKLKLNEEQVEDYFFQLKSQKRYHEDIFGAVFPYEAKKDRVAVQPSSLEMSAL
The series is described as follows: Assay for inducible human NOS (citrulline formation), enzyme from cytokine-induced DLD-1 cells. Format: biochemical. The settings on record: for Ki: isolated enzyme from DLD-1 cells, read-out: Human Inducible Ki/μM.
Experimental: as §1
DLD-1 (ATCC No. CCL 221) were grown at 37° C., 5% CO2 in RPMI 1640 medium supplemented with L-glutamin, penicillin, streptomycin, and 10% heat-inactivated fetal bovine serum. Cells were grown to confluency and then the following cocktail of cytokines were added: 100 units/ml interferon-gamma, 200 units/ml interleukin-6, 10 ng/ml tumor necrosis factor, and 0.5 ng/mil interleukin-1β. At 10-24 hr post-induction, cells were harvested by scraping and washed with phosphate-buffered saline. Pelleted cells were stored at −70° C. Purification of the induced NOS was performed at 4° C. Crude extract was prepared by three cycles of freeze/thawing cells in TDGB (20 mM tris pH 7.5, 10% glycerol, 1 mM DTT, 2 μM tetrahydrobiopterin). Extract was applied directly onto a column of 2′,5′ ADP sepharse (Pharmacia). Resin was sequentially washed with TDGB, 0.5 M NaCl in TDGB, TDGB. NOS was eluted with 2 mM NADPH in TDGB. BSA was immediately added to give a final concentration of 1 mg/ml. NOS could be quick frozen and stored at −70° C. without loss in activity for at least 2 months.
Assay for inducible human NOS.
The formation of citrulline was assayed as described above except that 10 μM FAD was included and calmodulin and CaCl2 were excluded from the assay mix.

T1 sequence (P29474 2-1203): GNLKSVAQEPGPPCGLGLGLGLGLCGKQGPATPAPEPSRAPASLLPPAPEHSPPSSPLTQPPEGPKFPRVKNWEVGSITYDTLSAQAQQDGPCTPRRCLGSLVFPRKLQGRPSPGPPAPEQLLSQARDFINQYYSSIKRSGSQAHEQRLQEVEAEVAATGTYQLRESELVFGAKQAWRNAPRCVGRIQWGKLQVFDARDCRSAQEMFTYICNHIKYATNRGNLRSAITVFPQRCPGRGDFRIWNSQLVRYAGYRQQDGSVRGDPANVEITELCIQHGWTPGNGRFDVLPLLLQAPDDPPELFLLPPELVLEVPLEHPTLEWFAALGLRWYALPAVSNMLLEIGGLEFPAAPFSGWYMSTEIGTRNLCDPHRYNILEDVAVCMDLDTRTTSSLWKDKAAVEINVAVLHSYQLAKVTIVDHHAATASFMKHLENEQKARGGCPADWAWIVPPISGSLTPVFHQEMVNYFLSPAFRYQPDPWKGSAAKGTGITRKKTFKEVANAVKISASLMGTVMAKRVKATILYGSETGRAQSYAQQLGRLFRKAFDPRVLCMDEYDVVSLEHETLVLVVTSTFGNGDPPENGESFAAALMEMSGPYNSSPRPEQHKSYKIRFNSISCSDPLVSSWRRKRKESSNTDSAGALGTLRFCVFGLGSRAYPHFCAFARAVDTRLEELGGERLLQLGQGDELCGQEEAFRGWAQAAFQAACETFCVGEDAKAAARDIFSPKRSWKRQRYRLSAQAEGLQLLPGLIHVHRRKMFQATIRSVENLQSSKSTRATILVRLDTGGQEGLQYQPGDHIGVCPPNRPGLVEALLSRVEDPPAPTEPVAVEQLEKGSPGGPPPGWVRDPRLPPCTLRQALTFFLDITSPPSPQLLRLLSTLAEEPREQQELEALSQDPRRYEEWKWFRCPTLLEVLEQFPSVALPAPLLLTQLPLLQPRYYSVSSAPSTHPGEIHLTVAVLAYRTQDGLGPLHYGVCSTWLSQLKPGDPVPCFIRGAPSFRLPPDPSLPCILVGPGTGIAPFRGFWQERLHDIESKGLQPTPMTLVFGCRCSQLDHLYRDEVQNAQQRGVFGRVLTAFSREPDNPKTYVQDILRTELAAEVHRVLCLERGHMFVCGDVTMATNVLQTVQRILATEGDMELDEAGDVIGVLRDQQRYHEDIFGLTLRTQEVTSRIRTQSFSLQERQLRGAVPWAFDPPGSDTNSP

With `N=C(Nc1ccc(C(F)(F)F)cc1)SCc1ccccc1` [Example 2A, S-Benzyl-N-[4-(trifluoromethyl)phenyl]isothiourea], the melting point was 71 to 72 °C. Also, in series [1], the “Human Placental, percent (inhibition), concentration not given” value turned out to be 0%. For the same compound, in series [2] (@ 25 μM inhibitor, read-out: Human Brain, percent (inhibition) @ 25 μM), the inhibition at 25 µM was 11%. Further, the “Human Inducible, percent (inhibition), concentration not given” value in series [3] was 0%.

The compound `COC(=N)Nc1ccc(C(F)(F)F)cc1` [Example 3, O-Methyl-N-(4-(trifluoromethyl)phenyl)isourea] gave a melting point of 121 to 123 °C. For the same compound, in series [1], the “Human Placental, percent (inhibition), concentration not given” value stood at 14%. The “Human Brain, percent (inhibition), concentration not given” value in series [2] (concentration not given) is 24%. In addition, the “Human Inducible, percent (inhibition), concentration not given” value in series [3] is 4%.

For `CC(C)SC(=N)NCCC[C@@H](N)C(=O)O` [Example 9K], the Ki in series [1] turned out to be 30 µM; in series [2], 61 µM; in series [3], 40 µM.

Regarding `CC(C)SC(=N)NCCCC[C@@H](N)C(=O)O` [Example 9L], the Ki in series [1] is 23 µM; in series [2] it was 108 µM; in series [3], 19 µM.

Regarding `CCOC(=N)NCc1cccc(CN)c1` [Example 12, 1-(3-(Aminomethyl)benzyl)-O-ethylisourea], the Ki was determined as 4.1 µM in series [1], 0.09 µM in series [2] and 1.7 µM in series [3].

On to `CSC(=N)NCc1cccc(CN)c1` [Example 13, 1-(3-(Aminomethyl)benzyl)-S-methylisothiourea], for which the Ki in series [1] stood at 3.3 µM; in series [2], 3 µM; in series [3] it was 0.69 µM.

Turning to `CCSC(=N)NCc1cccc(CN)c1` [Example 13A, 1-(3-(Aminomethyl)benzyl)S-ethylisothiourea], the Ki was determined as 2.1 µM in series [1], 0.9 µM in series [2] and 0.15 µM in series [3].

Take `CSC(=N)NCc1ccc(CN)cc1` [Example 14, 1-(4-(Aminomethyl)benzyl)-S-methylisothiourea]: the values for the Ki in series [1], in series [2] and in series [3] were 23.2 µM, 28 µM and 22.6 µM, respectively.

On to `CCSC(=N)NCc1ccc(CN)cc1` [Example 14A, 1-(4-(Aminomethyl)benzyl)-S-ethylisoiourea], for which the Ki came out at 14 µM in series [1], 5.5 µM in series [2] and 5.3 µM in series [3].

Take “N^6-((methylthio)iminomethyl)-D-lysine [Example 9H]”: the Ki is 1.2 µM in series [1], 0.4 µM in series [2] and 5.3 µM in series [3].

In the case of “N^6-(ethylthio)iminomethyl-D-lysine [Example 9J]”, the Ki in series [1] is 1.3 µM; in series [2] it was 0.56 µM; in series [3] it was 7 µM.
